Test results taken from patent publication US20250011316A1, “PEROXIREDOXIN 3 INHIBITORS AND METHODS OF USE FOR TREATING CANCER” (Wake Forest University Health Sciences, priority 2022, published 2025).
pEC50, pIC50: −log10 of the molar value. Values after ≈ are worked out from the molar mass of the structure shown. Structures can show the parent of a compound that is named as a salt. Values belong to the molecule of their own block, whether it stands above or below them.

What was measured:
PRX3 = target: T1, PRX3 (Homo sapiens, UniProt P30048); experiment: Crosslinking study: PRX3 western blot of H-MESO cell lysates; type: cell-based; conditions: H-MESO cells treated 24 hours; TS at 2.5 or 5 μM; reducing SDS-PAGE, PRX3 western blot (FIG. 3)
T1 construct: endogenous in cells; host or cells: H-MESO malignant mesothelioma cells
T1 sequence (P30048 62-256): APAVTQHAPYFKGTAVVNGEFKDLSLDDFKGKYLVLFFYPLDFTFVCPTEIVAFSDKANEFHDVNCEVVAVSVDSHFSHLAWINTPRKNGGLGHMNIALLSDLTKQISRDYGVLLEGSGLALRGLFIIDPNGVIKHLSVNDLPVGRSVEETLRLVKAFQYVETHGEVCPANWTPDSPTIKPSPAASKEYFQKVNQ
Experimental: Malignant Mesothelioma (MM) cells (H-MESO cell line) were plated into 6-well plates in complete tissue culture media. Cells were allowed to adhere for 24 hours before being treated with indicated concentrations of thiostrepton (TS), (1) or (5) (DMSO Stocks) for 24 hours. Cell lysates were generated using standard RIPA buffer, protein concentrations were determined using a Bradford Assay and 20 μg of total protein per sample were separated by reducing SDS-Polyacrylamide Gel Electrophoresis. Proteins were transferred to a PVDF membrane, blocked with 5% Bovine Serum Albumin (BSA) for 1 hour and incubated with PRX3 primary antibody overnight at 4° C. in IX Tris Buffered Saline with Tween (TBST). Membranes were washed 3X with IX TBST and incubated with horseradish peroxidase conjugated (HRP) secondary antibody for 1 hour at room temperature. Membranes were washed 3x in IX TBST and HRP signal was developed using Enhanced Chemiluminescence and visualized on a GE digital imager.

HMESO mesothelioma cells = experiment: Cell viability study (crystal violet, 48 h); type: cell-based; conditions: Homo sapiens, 48 h incubation, read-out: IC50 (Concentration of drug required to kill 50% of cells)
Experimental: Cell Lines were plated in 96-well plates (Corning, Kennebunk, ME, USA) at a density of 2500 cells per well. The following day, cells were treated with test compounds diluted in complete media followed by incubation for 48 h. Post-incubation cells were washed with PBS (Corning Cellgro, Manassas, VA, USA), fixed with 3.0% formaldehyde (Fisher BioReagents, Fair Lawn, NJ, USA) in PBS, and stained for 30 min with 0.1% crystal violet (Acros Organics, Fair Lawn, NJ, USA) in water. Crystal violet stain was removed, and plates were washed with FEO and allowed to dry. To quantify cell viability, plates were imaged using the Lionheart Plate reader (BioTek Instruments, Winooski, VT, USA) and/or analyzed by absorbance at 540 nm (crystal violet dye dissolved in 100% methanol) using the Synergy HTX plate reader (BioTek Instruments, Winooski, VT, USA). To determine the effective cytotoxic concentration (ICso) of test compounds, the data were plotted using a 4-parameter non-linear regression model using GraphPad Prism7 software (GraphPad Software, San Diego, CA, USA).
Cell viability assay data in HMESO mesothelioma cells treated with compounds (1)—HCl or (5) HCl are summarized in the below Table 2. ICso (Concentration of drug required to kill 50% f cells) is shown in […] concentration

[1] = Behaviour of compounds in DMSO and complete tissue culture media (HMESO cell viability assay, FIG. 1); type: physicochemical; conditions: from DMSO solution
Experimental: FIG. 1: Cell viability assay data in Malignant Mesothelioma (MM) cells (HMESO cell line) treated with compound (1)—HCl or (5)—HCl N=2 technical and 2 biological replicates conducted by 2 different lab technicians. All compounds went into solution in 100% DMSO. (5)—HCl precipitated at concentrations of ˜20-80 μM when added to complete tissue culture media.

[2] = system: human SK—OV-3 ovarian cancer cells; experiment: Cellular Activity Assay (cytotoxicity, crystal violet); type: cell-based; conditions: Homo sapiens; SK—OV-3 cells, treated for 48 hr, 0.1-100 μM, crystal violet absorbance at 540 nm
Outline: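 SK-OV-3 cells plated, allowed 24 h recovery, then treated 48 hr with compound at 0.1-100 μM. Live cells were fixed (3.0% formaldehyde), stained with 0.1% crystal violet and read at 540 nm. EC50 was fitted after normalizing to matched-DMSO controls.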

Solubility Assay (HPLC) = type: physicochemical; conditions: HEPES/NaCl buffer, aqueous with cosolvent or surfactant or cyclodextrin, kinetic from dmso stock; 20 mM HEPES, 100 mM NaCl, pH 7.5, 18-24 hours at ambient temperature; read-out: Solubility
Outline: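 Compound from 20 mM DMSO stock added to 20 mM HEPES, 100 mM NaCl, pH 7.5, rotated 18-24 h at ambient temperature, then centrifuged 10 min at 20,000×g to remove solids. Supernatant diluted in DMSO and quantified by HPLC peak area against the closest of 200 μM and 20 μM standards, corrected for dilution.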

purified human PRX3 = target: T2, purified human PRX3 (Homo sapiens, UniProt P30048); experiment: Biochemical PRX3 Inhibition Assay (non-reducible crosslink by SDS PAGE + single adduct by MALDI-TOF MS); conditions: 100 μM PRX3 with TRX2/thioredoxin reductase/NADPH system and hydrogen peroxide, 1-2 hr at 37° C.
T2 construct: made in house
T2 sequence (P30048 62-256): T1 sequence (P30048 62-256)
Outline: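 Purified human PRX3 (100 µM) cycled with TRX2, thioredoxin reductase, NADPH regenerating system and H2O2, incubated with compound 1–2 h at 37 °C. Non-reducible crosslink quantified by densitometry of SDS-PAGE (~46 vs ~23 kDa) after DTT; single-adduct fraction from MALDI-TOF MS peak intensities, background-corrected against DMSO.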

[3] = system: Enterococcus hirae (ATCC #10541); experiment: Antimicrobial Activity Assay (MIC / growth inhibition); type: cell-based; conditions: for MIC: ATCC10541, Enterococcus hirae, analogs tested at 20 μM final concentration
Experimental: The overnight growth was then diluted into growth media to make a single solution of E. hirae with a final optical density at 600 nm=0.02 AU. A 20 mM stock solution of Thiostrepton in DMSO was made and used to make multiple dilutions of TS in DMSO. Each TS dilution (0.1 mL) was then added to a test tube containing 10 mL of the diluted E. hirae and grown at 37° C. overnight while shaking at 180 rpm. The next morning, each tube was visually inspected to determine if the cells grew. Final concentrations tested were 0.120, 0.090, 0.075, 0.060, 0.045, 0.030, and 0.015 μM TS. […] Three replicates were made on three separate days (n=9). […] For TS analogs, the dilute E. hirae was treated with 20 μM final concentration of each analog (three replicates each). […] DMSO was used as a positive control (complete cell growth) and 20 μM thiostrepton was used as a negative control.

578 cancer cells lines = conditions: of 578 cancer cells lines tested; Corsello et al. Nature Cancer 2020; cited from earlier work
FIG. 5 (CON'T) [4] = experiment: FIG. 5 (CON'T)
Experimental: (§1) Table printed on a drawing sheet, FIG. 5 (CON'T)
(§2) The patent's description of the figure: FIG. 5 is a table summarizing the results of Examples 42-44 for various compounds described herein. NT indicates “not tested.” For EC50 values, “A” represents an EC50 less than or equal to 5.0 μM, “B” represents an EC50 from 5.1 μM to 10.0 μM, “C” represents an EC50 from 10.1 μM to 50.0 μM, and “D” represents an EC50 greater than 50.0 μM.
First reader's note: Continued from the sheet before: the first body row is the end of a record begun there; EC50 is given as classes A-D whose legend is not printed on this sheet.

FIG. 5 (CON’T) [5] = experiment: FIG. 5 (CON’T)
Experimental: (§3) Table printed on a drawing sheet, FIG. 5 (CON’T)
as §2

FIG. 5 (CON’T) [6] = experiment: FIG. 5 (CON’T); remark: listed apart in the source
Experimental: as §3, §2
First reader's note: Continued from an earlier sheet of FIG. 5; the EC50 classes A-D and NT are not explained on this sheet but only in the patent's figure description.

FIG. 5 (CON'T) [7] = experiment: FIG. 5 (CON'T); remark: listed apart in the source
Experimental: as §1, §2
First reader's note: Continued from an earlier sheet of FIG. 5; EC50 is given as classes A-C, and neither these classes nor NT are explained on this sheet.

[8] = E. hirae, overnight at 37° C., MIC determination, n=9

Compound: C=C(NC(=O)C(=C)NC(=O)c1csc(-c2ccc(N)cc2)n1)C(N)=O [(1), N-(3-((3-amino-3-oxoprop-1-en-2-yl)amino)-3-oxoprop-1-en-2-yl)-2-(4-aminophenyl)thiazole-4-carboxamide]
- Covalent PRX3 crosslinking (PRX3-X-PRX3) (PRX3): No PRX3 —X —PRX3 crosslinking was observed

Compound: C=C(NC(=O)C(=C)NC(=O)c1csc(-c2ccc(N)cc2)n1)C(N)=O [(1)-HC1, N-(3-((3-amino-3-oxoprop-1-en-2-yl)amino)-3-oxoprop-1-en-2-yl)-2-(4-aminophenyl)thiazole-4-carboxamide hydrochloride]
- pIC50 (HMESO mesothelioma cells): 3.13

Compound: C=C(NC(=O)c1csc(-c2ccc(N)cc2)n1)C(=O)NC(=C)C(=O)OC [(5), Methyl 2-(2-(2-(4-aminophenyl)thiazole-4-carboxamido)acrylamido)acrylate]
- Covalent PRX3 crosslinking (PRX3-X-PRX3) (PRX3): Similar, yet less robust

Compound: C=C(NC(=O)c1csc(-c2ccc(N)cc2)n1)C(=O)NC(=C)C(=O)OC [(5)—HCl, Methyl 2-(2-(2-(4-aminophenyl)thiazole-4-carboxamido)acrylamido)acrylate hydrochloride]
- pIC50 (HMESO mesothelioma cells): 5.71
- concentrations at which compound precipitated when added to complete tissue culture media [1]: 20 to 80 µM

Compound: C=C(NC(=O)C(=C)NC(=O)c1csc(C2=N[C@@H]3c4csc(n4)[C@H]4NC(=O)c5csc(n5)[C@H]([C@](C)(O)[C@@H](C)O)NC(=O)[C@H]5CSC(=N5)/C(=C/C)NC(=O)[C@H]([C@@H](C)O)NC(=O)c5csc(n5)[C@]3(CC2)NC(=O)[C@H](C)NC(=O)C(=C)NC(=O)[C@H](C)NC(=O)[C@H]([C@@H](C)CC)N[C@@H]2C=Cc3c([C@H](C)O)cc(nc3[C@H]2O)C(=O)O[C@@H]4C)n1)C(N)=O [TS, Thiostrepton, reference compound]
- pIC50 (HMESO mesothelioma cells): 5.99
- Covalent PRX3 crosslinking (PRX3-X-PRX3) (PRX3): resulted in covalent PRX3 crosslinking
- TS concentrations at which complete growth was observed [3, 8]: < 0.030 µM
- TS concentrations at which no growth was observed [3, 8]: > 0.045 µM

Compound: C=C(NC(=O)C(=C)NC(=O)c1csc(C2=N[C@@H]3c4csc(n4)[C@H]4NC(=O)c5csc(n5)[C@H]([C@](C)(O)[C@@H](C)O)NC(=O)[C@H]5CSC(=N5)/C(=C/C)NC(=O)[C@H]([C@@H](C)O)NC(=O)c5csc(n5)[C@]3(CC2)NC(=O)[C@H](C)NC(=O)C(=C)NC(=O)[C@H](C)NC(=O)[C@H]([C@@H](C)CC)N[C@@H]2C=Cc3c([C@H](C)O)cc(nc3[C@H]2O)C(=O)O[C@@H]4C)n1)C(N)=O [Thiostrepton, thiostrepton]
- number of tumor cells lines in which meaningful efficacy was shown (578 cancer cells lines): 403

Second part, led by results:

- solubility (Solubility Assay (HPLC)): > 1000 µM
- PRX3 Inhibition (Crosslink + Mono-adduct) (purified human PRX3): + (5-50%)
- MIC [3]: > 20 µM
Compound: C=C(NC(=O)c1csc(N2CCC[C@@H](NC(=O)OCCOC)C2)n1)C(=O)NC(=C)C(=O)OC [Compound 31, Methyl (R)-2-(2-(2-(3-(((2-methoxyethoxy)carbonyl)amino)piperidin-1-yl)thiazole-4-carboxamido)acrylamido)acrylate]
- pEC50 [2]: 4.00 to 4.60

- solubility (Solubility Assay (HPLC)): 100 to 1000 µM (≈ 51 to 510 µg/mL)
- PRX3 Inhibition (Crosslink + Mono-adduct) (purified human PRX3): ++ (50-90%)
- MIC [3]: > 20 µM
Compound: C=C(NC(=O)c1csc(N2CCC(COC(=O)NCCCOC)CC2)n1)C(=O)NC(=C)C(=O)OC [Compound 32, Methyl 2-(2-(2-(4-((((3-methoxypropyl)carbamoyl)oxy)methyl)piperidin-1-yl)thiazole-4-carboxamido)acrylamido)acrylate]
- pEC50 [2]: 4.00 to 4.60

- solubility (Solubility Assay (HPLC)): > 1000 µM
- PRX3 Inhibition (Crosslink + Mono-adduct) (purified human PRX3): +++ (>90%)
- MIC [3]: > 20 µM
Compound: C=C(NC(=O)c1csc(N2CCC(NC(=O)OCCOC)CC2)n1)C(=O)NC(=C)C(=O)OC [Compound 33, Methyl 2-(2-(2-(4-(((2-methoxyethoxy)carbonyl)amino)piperidin-1-yl)thiazole-4-carboxamido)acrylamido)acrylate]
- pEC50 [2]: 4.00 to 4.60

- solubility (Solubility Assay (HPLC)): > 1000 µM
- PRX3 Inhibition (Crosslink + Mono-adduct) (purified human PRX3): +++ (>90%)
- MIC [3]: > 20 µM
Compound: C=C(NC(=O)c1csc(N2CCC(NC(=O)COCCOC)CC2)n1)C(=O)NC(=C)C(=O)OC [Compound 34, Methyl 2-(2-(2-(4-(2-(2-methoxyethoxy)acetamido)piperidin-1-yl)thiazole-4-carboxamido)acrylamido)acrylate]
- pEC50 [2]: 5.00 to 6.00

- Time into solution from powder? (FIG. 5 (CON'T) [4]): 1 to 2 min
Compound: C=C(NC(=O)c1csc(N2C[C@@H](C)N(C(=O)OC(C)(C)C)[C@@H](C)C2)n1)C(=O)NC(=C)C(=O)OC [compound 56]

- Time into solution from powder? (FIG. 5 (CON’T) [5]): 1 to 2 min
Compound: C=C(NC(=O)c1csc(N2CCC(C(=O)NCCCOC)CC2)n1)C(=O)NC(=C)C(=O)OC [compound 61]

- Time into solution from powder? (FIG. 5 (CON’T) [6]): 1 to 2 min
Compound: C=C(NC(=O)c1csc(N2CCN(CCCOC)C(=O)C2)n1)C(=O)NC(=C)C(=O)OC [compound 63]

- Time into solution from powder? (FIG. 5 (CON'T) [7]): 1 to 2 min
Compound: C=C(NC(=O)c1ccc(-c2ccc(NC(=O)OC(C)(C)C)cc2)cc1)C(=O)NC(=C)C(=O)OC [compound 69]
